Data from article PMC9945734 (BMC Medicine, 2023).

System: PC-3-KQ and PC-3-KR cells
Test: RNA-sequencing and differential gene expression
Type: cell-based, human
Conditions: RNA-Seq, PC-3-KQ cells

`CC(=O)Oc1ccccc1C(=O)Nc1ncc([N+](=O)[O-])s1` [Nitazoxanide] was tested, and the “IL21R Change (KQ-Control vs KQ-NTZ)” value was “DOWN”, the “IL21R logFC (KQ-Control vs KQ-NTZ)” value was -0.8899 and the “INHBA Change (KQ-Control vs KQ-NTZ)” value was “DOWN”. The “INHBA logFC (KQ-Control vs KQ-NTZ)” value was -0.6293, the “INHBB Change (KQ-Control vs KQ-NTZ)” value was “DOWN” and the “INHBB logFC (KQ-Control vs KQ-NTZ)” value was -0.6733. The “KIAA1755 Change (KQ-Control vs KQ-NTZ)” value was “DOWN”, the “KIAA1755 logFC (KQ-Control vs KQ-NTZ)” value was -0.9388 and the “KLK9 Change (KQ-Control vs KQ-NTZ)” value was “DOWN”. For the same molecule, the “KLK9 logFC (KQ-Control vs KQ-NTZ)” value was -1.8809, the “LGALS12 Change (KQ-Control vs KQ-NTZ)” value was “DOWN” and the “LGALS12 logFC (KQ-Control vs KQ-NTZ)” value was -2.2497. The “LILRB3 Change (KQ-Control vs KQ-NTZ)” value was “DOWN”, the “LILRB3 logFC (KQ-Control vs KQ-NTZ)” value was -0.8729 and the “LOC105373989 Change (KQ-Control vs KQ-NTZ)” value was “DOWN”. The “LOC105373989 logFC (KQ-Control vs KQ-NTZ)” value was -0.7405, the “LOC105377805 Change (KQ-Control vs KQ-NTZ)” value was “DOWN” and the “LOC105377805 logFC (KQ-Control vs KQ-NTZ)” value was -0.9959. For the same molecule, the “LOC107987158 Change (KQ-Control vs KQ-NTZ)” value was “DOWN”, the “LOC107987158 logFC (KQ-Control vs KQ-NTZ)” value was -1.1348 and the “LONRF2 Change (KQ-Control vs KQ-NTZ)” value was “DOWN”. The “LONRF2 logFC (KQ-Control vs KQ-NTZ)” value was -0.9823, the “LTB Change (KQ-Control vs KQ-NTZ)” value was “DOWN” and the “LTB logFC (KQ-Control vs KQ-NTZ)” value was -0.7686. For the same molecule, the “LY6K Change (KQ-Control vs KQ-NTZ)” value was “DOWN”, the “LY6K logFC (KQ-Control vs KQ-NTZ)” value was -0.6327 and the “MAP7D3 Change (KQ-Control vs KQ-NTZ)” value was “DOWN”. The “MAP7D3 logFC (KQ-Control vs KQ-NTZ)” value was -0.8315, the “MCM4 Change (KQ-Control vs KQ-NTZ)” value was “DOWN” and the “MCM4 logFC (KQ-Control vs KQ-NTZ)” value was -0.8431. The “MEOX1 Change (KQ-Control vs KQ-NTZ)” value was “DOWN”, the “MEOX1 logFC (KQ-Control vs KQ-NTZ)” value was -0.6507 and the “MMP9 Change (KQ-Control vs KQ-NTZ)” value was “DOWN”. The “MMP9 logFC (KQ-Control vs KQ-NTZ)” value was -0.7252, the “MNX1 Change (KQ-Control vs KQ-NTZ)” value was “DOWN” and the “MNX1 logFC (KQ-Control vs KQ-NTZ)” value was -0.604. The “MSMP Change (KQ-Control vs KQ-NTZ)” value was “DOWN”, the “MSMP logFC (KQ-Control vs KQ-NTZ)” value was -1.1495 and the “MYBL2 Change (KQ-Control vs KQ-NTZ)” value was “DOWN”. The “MYBL2 logFC (KQ-Control vs KQ-NTZ)” value was -0.7249, the “MYH7B Change (KQ-Control vs KQ-NTZ)” value was “DOWN” and the “MYH7B logFC (KQ-Control vs KQ-NTZ)” value was -0.9453. For the same molecule, the “NKD1 Change (KQ-Control vs KQ-NTZ)” value was “DOWN”, the “NKD1 logFC (KQ-Control vs KQ-NTZ)” value was -0.7476 and the “NRK Change (KQ-Control vs KQ-NTZ)” value was “DOWN”. For the same molecule, the “NRK logFC (KQ-Control vs KQ-NTZ)” value was -1.1538, the “NTF4 Change (KQ-Control vs KQ-NTZ)” value was “DOWN” and the “NTF4 logFC (KQ-Control vs KQ-NTZ)” value was -0.9396. For the same molecule, the “PADI3 Change (KQ-Control vs KQ-NTZ)” value was “DOWN”, the “PADI3 logFC (KQ-Control vs KQ-NTZ)” value was -0.9445 and the “PCDH18 Change (KQ-Control vs KQ-NTZ)” value was “DOWN”. The “PCDH18 logFC (KQ-Control vs KQ-NTZ)” value was -1.1702, the “PEG10 Change (KQ-Control vs KQ-NTZ)” value was “DOWN” and the “PEG10 logFC (KQ-Control vs KQ-NTZ)” value was -0.7533. The “PFKFB1 Change (KQ-Control vs KQ-NTZ)” value was “DOWN”, the “PFKFB1 logFC (KQ-Control vs KQ-NTZ)” value was -0.9123 and the “PGAM4 Change (KQ-Control vs KQ-NTZ)” value was “DOWN”. The “PGAM4 logFC (KQ-Control vs KQ-NTZ)” value was -0.6254, the “PHACTR3 Change (KQ-Control vs KQ-NTZ)” value was “DOWN” and the “PHACTR3 logFC (KQ-Control vs KQ-NTZ)” value was -1.8948. The “PHOSPHO2 Change (KQ-Control vs KQ-NTZ)” value was “DOWN”, the “PHOSPHO2 logFC (KQ-Control vs KQ-NTZ)” value was -0.6401 and the “PIANP Change (KQ-Control vs KQ-NTZ)” value was “DOWN”. The “PIANP logFC (KQ-Control vs KQ-NTZ)” value was -1.6896, the “PRKDC Change (KQ-Control vs KQ-NTZ)” value was “DOWN” and the “PRKDC logFC (KQ-Control vs KQ-NTZ)” value was -0.6126. For the same molecule, the “PRR16 Change (KQ-Control vs KQ-NTZ)” value was “DOWN”, the “PRR16 logFC (KQ-Control vs KQ-NTZ)” value was -0.5996 and the “PRR29 Change (KQ-Control vs KQ-NTZ)” value was “DOWN”. The “PRR29 logFC (KQ-Control vs KQ-NTZ)” value was -0.8108, the “PRRT4 Change (KQ-Control vs KQ-NTZ)” value was “DOWN” and the “PRRT4 logFC (KQ-Control vs KQ-NTZ)” value was -0.6032. For the same molecule, the “RBL1 Change (KQ-Control vs KQ-NTZ)” value was “DOWN”, the “RBL1 logFC (KQ-Control vs KQ-NTZ)” value was -0.6965 and the “RPP25 Change (KQ-Control vs KQ-NTZ)” value was “DOWN”. For the same molecule, the “RPP25 logFC (KQ-Control vs KQ-NTZ)” value was -0.6095, the “SCG2 Change (KQ-Control vs KQ-NTZ)” value was “DOWN” and the “SCG2 logFC (KQ-Control vs KQ-NTZ)” value was -0.6461. For the same molecule, the “SERPINA3 Change (KQ-Control vs KQ-NTZ)” value was “DOWN” and the “SERPINA3 logFC (KQ-Control vs KQ-NTZ)” value was -0.7667.
